Values quoted from earlier work, collected in patent publication US20240199641A1, “QUINAZOLINE-4(3H)-ONE DERIVATIVES AS NEGATIVE ALLOSTERIC MODULATORS OF METABOTROPIC GLUTAMATE RECEPTOR 2” (Vanderbilt University, priority 2021, published 2024).
Where two headings read alike, the source gives them in different places.

What was measured:
[1] = C57Bl6/J mice
[2] = for activity in tail suspension test: Helpless (H) mice
[3] = test system: central mGlu2 and mGlu3 receptors; conditions: in vivo
[4] = olfactory bulbectomized rats, repeated administration for 14 days
[5] = mice
[6] = normal animals
[7] = treatment for 7 days
[8] = social isolation reared mice
[9] = normal animals; remark: listed apart in the source
[10] = CFS model

Compound | immobility time in FST [1] | activity in tail suspension test [2] | hypolocomotor effect of mGlu2/3 agonist LY379268 [3] | marble-burying behavior [5] | antidepressant-like effects in mouse TST [6] | antidepressant-like effects in rat FST [9] | freezing behavior [10] | further results
Cc1cc(-c2cccc(C3=Nc4cc(C)c(C(F)(F)F)cc4NC(=O)C3)c2)cc(C)n1 [RO4491533] | dose-dependently reduced | active | reversed | – | – | – | – | –
CCCCCCCOC(=O)[C@@]1(F)[C@@H]2C[C@@H](OCc3ccc(Cl)c(Cl)c3)[C@@](N)(C(=O)O)[C@@H]21 [BCI-838] | – | – | – | – | – | – | – | duration of inhibition of group II mGlu receptors by brain concentration of active metabolite BCI-632 (group II mGlu receptors; once-daily oral dosing): 22 h; Dutch APP transgene-associated learning and memory impairment (group II mGlu receptors; three months of treatment): reversed; anxiolytic effects (group II mGlu receptors; three months of treatment): anxiolytic effects; levels of monomeric and oAβ peptides in hippocampus and cortex (group II mGlu receptors; three months of treatment, two AD mouse models): decreased; hippocampal progenitor cell proliferation (group II mGlu receptors; wild-type and Alzheimer's diseased mice, 3 months): stimulated
N[C@]1(C(=O)O)[C@H]2[C@@H](C[C@H]1OCc1ccc(Cl)c(Cl)c1)[C@]2(F)C(=O)O [MGS0039] | – | – | – | reduced | Antidepressant-like effects | Antidepressant-like effects | significantly decreased | hyperactivity in the open field test [4]: attenuated; learning deficit in the passive avoidance test [4]: attenuated; spontaneous locomotor activity [5]: no significant change; number of escape failures [7]: significantly reduced; increased immobility in FST [8]: reversed
CNCCC(Oc1ccc(C(F)(F)F)cc1)c1ccccc1 (centres unmarked) [fluoxetine] | – | – | – | – | – | – | – | antidepressant effect in helpless mice ([2]; chronic (21 days) treatment): full antidepressant effect
N[C@](CC1c2ccccc2Oc2ccccc21)(C(=O)O)[C@H]1C[C@@H]1C(=O)O [LY341495] | dose-dependently reduced | active | achieved the same result | significantly reduce | Antidepressant-like effects | Antidepressant-like effects | – | antidepressant effect in helpless mice ([2]; acute administration): potent antidepressant effect
CN1C(=O)CN=C(c2ccccc2)c2cc(Cl)ccc21 [diazepam] | – | – | – | – | – | – | significantly decreased | –
